Measured values from patent US9023789B2, “Amylin analogs and pharmaceutical compositions thereof” (Novo Nordisk A/S, priority 2012, dated 2015).
Numbered stars: 1 amine (or outer) side, 2 acyl side, 3 side chain; on linkers, the order of the positions; unused ones are H or OH. Bridge positions count the residues as written; N and C are the ends. Side chains are listed from the residue outwards. Peptide text beside a SMILES is read from it. * marks the point of attachment. C20 diacid = O=C(O)CCCCCCCCCCCCCCCCCCC(=O)*; γGlu = O=C(O)[C@H](CCC(=O)[*:2])N[*:1]; AEEA = NCCOCCOCC(=O)O

Tests used:
[1] = ASSAY (III) ThT fibrillation assay for physical stability; format: physicochemical
How it was run: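 Formulations with 1 μM ThT, pH adjusted as required, incubated at 37 °C with 960 rpm orbital shaking; fluorescence (ex 444/em 485 nm) read every 20 min. Fibrillation reported as mean ThT fluorescence ± SD of 4–8 replicates at time points; polypeptide concentration measured by reverse-phase HPLC before and after, post-centrifugation.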

[2] = target: T1, human calcitonin receptor (Homo sapiens, UniProt P30988); assay: ASSAY (VII) binding to the human calcitonin receptor (SPA, 125I-Calcitonin); settings: read-out: hCTR bind IC50;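 also: cell membranes (35 ng/µL) combined with SPA beads in 40 µL of pH 7.4 Hepes buffer, 384-well format, signal counted on a TopCounter instrument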
T1 construct: expressed in transfected cells
T1 sequence (P30988 25-474): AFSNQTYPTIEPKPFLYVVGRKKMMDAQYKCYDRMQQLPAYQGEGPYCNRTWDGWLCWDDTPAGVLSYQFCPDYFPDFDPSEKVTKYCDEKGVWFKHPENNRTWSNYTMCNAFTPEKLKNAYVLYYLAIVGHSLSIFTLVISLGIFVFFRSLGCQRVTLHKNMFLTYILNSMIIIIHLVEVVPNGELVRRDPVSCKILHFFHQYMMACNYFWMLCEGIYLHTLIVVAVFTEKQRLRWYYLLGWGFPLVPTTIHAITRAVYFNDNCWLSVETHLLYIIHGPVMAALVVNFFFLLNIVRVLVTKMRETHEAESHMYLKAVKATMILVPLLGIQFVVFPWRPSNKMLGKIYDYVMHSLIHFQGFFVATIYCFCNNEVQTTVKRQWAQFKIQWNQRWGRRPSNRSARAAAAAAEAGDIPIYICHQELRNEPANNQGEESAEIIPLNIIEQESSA

SMILES | ThT pH 4.0 lag time (h) [1] [h] | IC50 [2] [nM]
CC[C@H](C)[C@H](NC(=O)[C@H](C)NC(=O)CNC(=O)[C@H](Cc1ccccc1)NC(=O)[C@H](CC(N)=O)NC(=O)[C@@H]1CCCN1C(=O)[C@H](CO)NC(=O)[C@H](CO)NC(=O)[C@H](Cc1c[nH]cn1)NC(=O)[C@H](CCCNC(=N)N)NC(=O)[C@H](CC(C)C)NC(=O)[C@H](Cc1ccccc1)NC(=O)[C@H](CCC(=O)O)NC(=O)[C@H](C)NC(=O)[C@H](CC(C)C)NC(=O)[C@H](CCCNC(=N)N)NC(=O)[C@H](CCC(N)=O)NC(=O)[C@@H](NC(=O)[C@H](C)NC(=O)[C@@H]1CSSC[C@H](NC(=O)[C@H](CCCCN)NC(=O)CC[C@H](NC(=O)CCCCCCCCCCCCCCCCCCC(=O)O)C(=O)O)C(=O)N[C@@H](CC(N)=O)C(=O)N[C@@H]([C@@H](C)O)C(=O)N[C@@H](C)C(=O)N[C@@H]([C@@H](C)O)C(=O)N1)[C@@H](C)O)C(=O)N1CCC[C@H]1C(=O)N[C@@H](CO)C(=O)N[C@@H](CO)C(=O)N[C@H](C(=O)N[C@@H](CC(N)=O)C(=O)N[C@H](C(=O)NCC(=O)N[C@@H](CO)C(=O)N[C@@H](CC(N)=O)C(=O)N[C@H](C(=O)N1CCC[C@H]1C(N)=O)[C@@H](C)O)C(C)C)[C@@H](C)O [Example 8] ({C20 diacid-γGlu}-KCNTATCATQRLAEFLRHSSPNFGAIPSSTNVGSNTP-NH2; disulfide 2-7) | 45 | 0.038
CC[C@H](C)[C@H](NC(=O)[C@H](C)NC(=O)CNC(=O)[C@H](Cc1ccccc1)NC(=O)[C@H](CC(N)=O)NC(=O)[C@@H]1CCCN1C(=O)[C@H](CO)NC(=O)[C@H](CO)NC(=O)[C@H](Cc1c[nH]cn1)NC(=O)[C@H](CCCNC(=N)N)NC(=O)[C@H](CC(C)C)NC(=O)[C@H](Cc1ccccc1)NC(=O)[C@H](CC(N)=O)NC(=O)[C@H](C)NC(=O)[C@H](CC(C)C)NC(=O)[C@H](CCCNC(=N)N)NC(=O)[C@H](CCC(N)=O)NC(=O)[C@@H](NC(=O)[C@H](C)NC(=O)[C@@H]1CSSC[C@H](NC(=O)[C@@H](N)CCCCNC(=O)CC[C@H](NC(=O)CC[C@H](NC(=O)CCCCCCCCCCCCCCCCCCC(=O)O)C(=O)O)C(=O)O)C(=O)N[C@@H](CC(N)=O)C(=O)N[C@@H]([C@@H](C)O)C(=O)N[C@@H](C)C(=O)N[C@@H]([C@@H](C)O)C(=O)N1)[C@@H](C)O)C(=O)N1CCC[C@H]1C(=O)N[C@@H](CO)C(=O)N[C@@H](CO)C(=O)N[C@H](C(=O)N1CCC[C@H]1C(=O)N[C@H](C(=O)NCC(=O)N1CCC[C@H]1C(=O)N[C@@H](CCCNC(=N)N)C(=O)N[C@H](C(=O)N[C@@H](Cc1ccc(O)cc1)C(N)=O)[C@@H](C)O)C(C)C)[C@@H](C)O [Example 119] (H-K([γGlu-γGlu-C20 diacid])CNTATCATQRLANFLRHSSPNFGAIPSSTPVGPRTY-NH2; disulfide 2-7) | 10 | 42.8
CC[C@H](C)[C@H](NC(=O)[C@H](C)NC(=O)CNC(=O)[C@H](Cc1ccccc1)NC(=O)[C@H](CC(N)=O)NC(=O)[C@@H]1CCCN1C(=O)[C@H](CO)NC(=O)[C@H](CO)NC(=O)[C@H](Cc1c[nH]cn1)NC(=O)[C@H](CCCNC(=N)N)NC(=O)[C@H](CC(C)C)NC(=O)[C@H](Cc1ccccc1)NC(=O)[C@H](CCC(=O)O)NC(=O)[C@H](C)NC(=O)[C@H](CC(C)C)NC(=O)[C@H](CCCNC(=N)N)NC(=O)[C@H](CCC(N)=O)NC(=O)[C@@H](NC(=O)[C@H](C)NC(=O)[C@@H]1CSSC[C@H](NC(=O)[C@H](CCCCN)NC(=O)CC[C@H](NC(=O)CCCCCCCCCCCCCCCCCCC(=O)O)C(=O)O)C(=O)N[C@@H](CC(N)=O)C(=O)N[C@@H]([C@@H](C)O)C(=O)N[C@@H](C)C(=O)N[C@@H]([C@@H](C)O)C(=O)N1)[C@@H](C)O)C(=O)N1CCC[C@H]1C(=O)N[C@@H](CO)C(=O)N[C@@H](CO)C(=O)N[C@H](C(=O)N[C@@H](CC(N)=O)C(=O)N[C@H](C(=O)NCC(=O)N[C@@H](CO)C(=O)N[C@@H](CC(=O)O)C(=O)N[C@H](C(=O)N1CCC[C@H]1C(N)=O)[C@@H](C)O)C(C)C)[C@@H](C)O [Example 11] ({C20 diacid-γGlu}-KCNTATCATQRLAEFLRHSSPNFGAIPSSTNVGSDTP-NH2; disulfide 2-7 (inferred)) | 45 | 0.101
CC[C@H](C)[C@H](NC(=O)[C@H](C)NC(=O)CNC(=O)[C@H](Cc1ccccc1)NC(=O)[C@H](CC(N)=O)NC(=O)[C@@H]1CCCN1C(=O)[C@H](CO)NC(=O)[C@H](CO)NC(=O)[C@H](Cc1c[nH]cn1)NC(=O)[C@H](CCCNC(=N)N)NC(=O)[C@H](CC(C)C)NC(=O)[C@H](Cc1ccccc1)NC(=O)[C@H](Cc1c[nH]cn1)NC(=O)[C@H](C)NC(=O)[C@H](CC(C)C)NC(=O)[C@H](CCCNC(=N)N)NC(=O)[C@H](CCC(N)=O)NC(=O)[C@@H](NC(=O)[C@H](C)NC(=O)[C@@H]1CSSC[C@H](NC(=O)[C@@H](N)CCCCNC(=O)CC[C@H](NC(=O)CCCCCCCCCCCCCCCCCCC(=O)O)C(=O)O)C(=O)N[C@@H](CC(N)=O)C(=O)N[C@@H]([C@@H](C)O)C(=O)N[C@@H](C)C(=O)N[C@@H]([C@@H](C)O)C(=O)N1)[C@@H](C)O)C(=O)N1CCC[C@H]1C(=O)N[C@@H](CO)C(=O)N[C@@H](CO)C(=O)N[C@H](C(=O)N[C@@H](CC(N)=O)C(=O)N[C@H](C(=O)NCC(=O)N1CCC[C@H]1C(=O)N[C@@H](CC(N)=O)C(=O)N[C@H](C(=O)N1CCC[C@H]1C(N)=O)[C@@H](C)O)C(C)C)[C@@H](C)O [Example 115] (H-K([γGlu-C20 diacid])CNTATCATQRLAHFLRHSSPNFGAIPSSTNVGPNTP-NH2; disulfide 2-7 (inferred); N-terminus assumed) | 45 | 0.157
CC[C@H](C)[C@H](NC(=O)[C@H](C)NC(=O)CNC(=O)[C@H](Cc1ccccc1)NC(=O)[C@H](CC(N)=O)NC(=O)[C@@H]1CCCN1C(=O)[C@H](CO)NC(=O)[C@H](CO)NC(=O)[C@H](Cc1c[nH]cn1)NC(=O)[C@H](CCCNC(=N)N)NC(=O)[C@H](CC(C)C)NC(=O)[C@H](Cc1ccccc1)NC(=O)[C@H](C)NC(=O)[C@H](C)NC(=O)[C@H](CC(C)C)NC(=O)[C@H](CCCNC(=N)N)NC(=O)[C@H](CCC(N)=O)NC(=O)[C@@H](NC(=O)[C@H](C)NC(=O)[C@@H]1CSSC[C@H](NC(=O)[C@@H](N)CCCCNC(=O)CC[C@H](NC(=O)CCCCCCCCCCCCCCCCCCC(=O)O)C(=O)O)C(=O)N[C@@H](CC(N)=O)C(=O)N[C@@H]([C@@H](C)O)C(=O)N[C@@H](C)C(=O)N[C@@H]([C@@H](C)O)C(=O)N1)[C@@H](C)O)C(=O)N1CCC[C@H]1C(=O)N[C@@H](CO)C(=O)N[C@@H](CO)C(=O)N[C@H](C(=O)N[C@@H](CC(N)=O)C(=O)N[C@H](C(=O)NCC(=O)N1CCC[C@H]1C(=O)N[C@@H](CC(N)=O)C(=O)N[C@H](C(=O)N[C@@H](Cc1ccc(O)cc1)C(N)=O)[C@@H](C)O)C(C)C)[C@@H](C)O [Example 94] (H-K([γGlu-C20 diacid])CNTATCATQRLAAFLRHSSPNFGAIPSSTNVGPNTY-NH2; disulfide 2-7 (inferred)) | 10 | 6.86
CC[C@H](C)[C@H](NC(=O)[C@H](C)NC(=O)CNC(=O)[C@H](Cc1ccccc1)NC(=O)[C@H](CC(N)=O)NC(=O)[C@@H]1CCCN1C(=O)[C@H](CO)NC(=O)[C@H](CO)NC(=O)[C@H](Cc1c[nH]cn1)NC(=O)[C@H](CCCNC(=N)N)NC(=O)[C@H](CC(C)C)NC(=O)[C@H](Cc1ccccc1)NC(=O)[C@H](CC(=O)O)NC(=O)[C@H](C)NC(=O)[C@H](CC(C)C)NC(=O)[C@H](CCCNC(=N)N)NC(=O)[C@H](CCC(N)=O)NC(=O)[C@@H](NC(=O)[C@H](C)NC(=O)[C@@H]1CSSC[C@H](NC(=O)[C@H](CCCCN)NC(=O)CC[C@H](NC(=O)CCCCCCCCCCCCCCCCCCC(=O)O)C(=O)O)C(=O)N[C@@H](CC(N)=O)C(=O)N[C@@H]([C@@H](C)O)C(=O)N[C@@H](C)C(=O)N[C@@H]([C@@H](C)O)C(=O)N1)[C@@H](C)O)C(=O)N1CCC[C@H]1C(=O)N[C@@H](CO)C(=O)N[C@@H](CO)C(=O)N[C@H](C(=O)N[C@@H](CC(N)=O)C(=O)N[C@H](C(=O)NCC(=O)N[C@@H](CO)C(=O)N[C@@H](CC(N)=O)C(=O)N[C@H](C(=O)N1CCC[C@H]1C(N)=O)[C@@H](C)O)C(C)C)[C@@H](C)O [Example 10] ({C20 diacid-γGlu}-KCNTATCATQRLADFLRHSSPNFGAIPSSTNVGSNTP-NH2; disulfide 2-7 (inferred)) | 45 | 0.099
CC[C@H](C)[C@H](NC(=O)[C@H](C)NC(=O)CNC(=O)[C@H](Cc1ccccc1)NC(=O)[C@H](CC(N)=O)NC(=O)[C@@H]1CCCN1C(=O)[C@H](CO)NC(=O)[C@H](CO)NC(=O)[C@H](Cc1c[nH]cn1)NC(=O)[C@H](CCCNC(=N)N)NC(=O)[C@H](CC(C)C)NC(=O)[C@H](Cc1ccccc1)NC(=O)[C@H](CCC(=O)O)NC(=O)[C@H](C)NC(=O)[C@H](CC(C)C)NC(=O)[C@H](CCCNC(=N)N)NC(=O)[C@H](CCC(N)=O)NC(=O)[C@@H](NC(=O)[C@H](C)NC(=O)[C@@H]1CSSC[C@H](NC(=O)[C@H](CCCCN)NC(=O)COCCOCCNC(=O)COCCOCCNC(=O)CC[C@H](NC(=O)CCCCCCCCCCCCCCCCCCC(=O)O)C(=O)O)C(=O)N[C@@H](CC(N)=O)C(=O)N[C@@H]([C@@H](C)O)C(=O)N[C@@H](C)C(=O)N[C@@H]([C@@H](C)O)C(=O)N1)[C@@H](C)O)C(=O)N1CCC[C@H]1C(=O)N[C@@H](CO)C(=O)N[C@@H](CO)C(=O)N[C@H](C(=O)N[C@@H](CC(N)=O)C(=O)N[C@H](C(=O)NCC(=O)N[C@@H](CO)C(=O)N[C@@H](CC(N)=O)C(=O)N[C@H](C(=O)N1CCC[C@H]1C(N)=O)[C@@H](C)O)C(C)C)[C@@H](C)O [Example 20] ({C20 diacid-γGlu-AEEA-AEEA}-KCNTATCATQRLAEFLRHSSPNFGAIPSSTNVGSNTP-NH2; disulfide 2-7) | 45 | 0.787
